The source of these data is ChEMBL document CHEMBL1132390, “Chemical modifications and structure activity studies of ziracin and related everninomicin antibiotics” (1999).

For one experiment, the system named is Staphylococcus sp. Description: In vitro antibacterial activity of compound against Staphylococci bacteria. The experiment is classed as functional.
For another experiment, the system named is Enterococcus sp. Description: In vitro antibacterial activity of compound against Enterococci bacteria. Type of experiment: functional.

The structures appear in SMILES notation. Values after ≈ are worked out from the molar mass of the structure shown.

On to `C=CCOc1c(Cl)c(C)c(C(=O)O[C@@H]2[C@@H](C)O[C@@H](O[C@H]3[C@H](O)C[C@]4(O[C@@H]5[C@@H](C)O[C@@H](O[C@H]6[C@@H](OC)[C@@H](C)O[C@@H](O[C@H]7[C@H](O)[C@H](OC)[C@H](O[C@@H]8OC[C@@H]9O[C@@]%10(OC[C@@H](OC(=O)c%11c(C)cc(O)cc%11O)[C@@H]%11OCO[C@H]%11%10)O[C@H]9[C@H]8O)O[C@@H]7COC)[C@]6(C)O)[C@@H](O)[C@@]5(C)O4)O[C@@H]3C)C[C@H]2O[C@H]2C[C@](C)([N+](=O)[O-])[C@@H](OC)[C@H](C)O2)c(OC)c1Cl`, for which the MIC against Staphylococcus sp. and with Enterococcus sp. was 4 µg/mL (≈ 2.37 µM) in each case.
As to `COC[C@H]1O[C@@H](O[C@@H]2OC[C@@H]3O[C@@]4(OC[C@@H](OC(=O)c5c(C)cc(O)cc5O)[C@@H]5OCO[C@H]54)O[C@H]3[C@H]2O)[C@@H](OC)[C@@H](O)[C@@H]1O[C@@H]1O[C@H](C)[C@H](OC)[C@H](O[C@@H]2O[C@H](C)[C@H]3O[C@]4(C[C@@H](O)[C@H](O[C@H]5C[C@@H](O[C@H]6C[C@](C)(NC(C)=O)[C@@H](OC)[C@H](C)O6)[C@H](OC(=O)c6c(C)c(Cl)c(O)c(Cl)c6OC)[C@@H](C)O5)[C@@H](C)O4)O[C@]3(C)[C@@H]2O)[C@@]1(C)O`, the MIC – broadly, the least concentration at which growth counts as inhibited – turned out to be 1 µg/mL (≈ 0.603 µM) in the experiment on Staphylococcus sp. and 2 µg/mL (≈ 1.21 µM) in the experiment on Enterococcus sp..
Regarding `COC[C@H]1O[C@@H](O[C@@H]2OC[C@@H]3O[C@@]4(OC[C@@H](OC(=O)c5c(C)cc(O)cc5O)[C@@H]5OCO[C@H]54)O[C@H]3[C@H]2OCCN=[N+]=[N-])[C@@H](OC)[C@@H](O)[C@@H]1O[C@@H]1O[C@H](C)[C@H](OC)[C@H](O[C@@H]2O[C@H](C)[C@H]3O[C@]4(C[C@@H](O)[C@H](O[C@H]5C[C@@H](O[C@H]6C[C@](C)([N+](=O)[O-])[C@@H](OC)[C@H](C)O6)[C@H](OC(=O)c6c(C)c(Cl)c(O)c(Cl)c6OC)[C@@H](C)O5)[C@@H](C)O4)O[C@]3(C)[C@@H]2O)[C@@]1(C)O`, the MIC against Staphylococcus sp. and with Enterococcus sp. was 2 µg/mL (≈ 1.17 µM) each time.
In the case of `C=CCOc1cc(C)c(C(=O)O[C@@H]2CO[C@]3(O[C@H]4[C@@H](OCCO)[C@H](O[C@@H]5O[C@H](COC)[C@@H](O[C@@H]6O[C@H](C)[C@H](OC)[C@H](O[C@@H]7O[C@H](C)[C@H]8O[C@]9(C[C@@H](O)[C@H](O[C@H]%10C[C@@H](O[C@H]%11C[C@](C)([N+](=O)[O-])[C@@H](OC)[C@H](C)O%11)[C@H](OC(=O)c%11c(C)c(Cl)c(OCC=C)c(Cl)c%11OC)[C@@H](C)O%10)[C@@H](C)O9)O[C@]8(C)[C@@H]7O)[C@@]6(C)O)[C@H](O)[C@@H]5OC)OC[C@@H]4O3)[C@@H]3OCO[C@H]32)c(OCC=C)c1`, the MIC in the experiment on Staphylococcus sp. stood at 16 µg/mL (≈ 8.84 µM); in the experiment with Enterococcus sp., 8 µg/mL (≈ 4.42 µM).
The corresponding values for `COC[C@H]1O[C@@H](O[C@@H]2OC[C@@H]3O[C@@]4(OC[C@@H](OC(=O)c5c(C)cc(O)cc5O)[C@@H]5OCO[C@H]54)O[C@H]3[C@H]2O)[C@@H](OC)[C@@H](O)[C@@H]1O[C@@H]1O[C@H](C)[C@H](OC)[C@H](O[C@@H]2O[C@H](C)[C@H]3O[C@]4(C[C@@H](O)[C@H](O[C@H]5C[C@@H](O[C@H]6C[C@](C)(NC(=O)[C@H](CCSC)NC(=O)OCc7ccccc7)[C@@H](OC)[C@H](C)O6)[C@H](OC(=O)c6c(C)c(Cl)c(O)c(Cl)c6OC)[C@@H](C)O5)[C@@H](C)O4)O[C@]3(C)[C@@H]2O)[C@@]1(C)O` are 2 µg/mL (≈ 1.06 µM) and 2 µg/mL (≈ 1.06 µM).
Taken in the same sequence, the figures for `COC[C@H]1O[C@@H](O[C@@H]2OC[C@@H]3O[C@@]4(OC[C@@H](OC(=O)c5c(C)cc(O)cc5O)[C@@H]5OCO[C@H]54)O[C@H]3[C@H]2O)[C@@H](OC)[C@@H](O)[C@@H]1O[C@@H]1O[C@H](C)[C@H](OC)[C@H](O[C@@H]2O[C@H](C)[C@H]3O[C@]4(C[C@@H](O)[C@H](O[C@H]5C[C@@H](O[C@H]6C[C@](C)(N)[C@@H](OC)[C@H](C)O6)[C@H](OC(=O)c6c(C)c(Cl)c(O)c(Cl)c6OC)[C@@H](C)O5)[C@@H](C)O4)O[C@]3(C)[C@@H]2O)[C@@]1(C)O` were 2 µg/mL (≈ 1.24 µM) and 4 µg/mL (≈ 2.48 µM).
Take `COC[C@H]1O[C@@H](O[C@@H]2OC[C@@H]3O[C@@]4(OC[C@@H](OC(=O)c5c(C)cc(O)cc5O)[C@@H]5OCO[C@H]54)O[C@H]3[C@H]2OCC(=O)OC)[C@@H](OC)[C@@H](OCC(=O)OC)[C@@H]1O[C@@H]1O[C@H](C)[C@H](OC)[C@H](O[C@@H]2O[C@H](C)[C@H]3O[C@]4(C[C@@H](O)[C@H](O[C@H]5C[C@@H](O[C@H]6C[C@](C)([N+](=O)[O-])[C@@H](OC)[C@H](C)O6)[C@H](OC(=O)c6c(C)c(Cl)c(O)c(Cl)c6OC)[C@@H](C)O5)[C@@H](C)O4)O[C@]3(C)[C@@H]2OCC(=O)OC)[C@@]1(C)O`: the minimum inhibitory concentration (MIC) in the experiment on Staphylococcus sp. came to 32 µg/mL (≈ 17.2 µM); against Enterococcus sp. it was 4 µg/mL (≈ 2.15 µM).
Take `COC[C@H]1O[C@@H](O[C@@H]2OC[C@@H]3O[C@@]4(OC[C@@H](OC(=O)c5c(C)cc(O)cc5O)[C@@H]5OCO[C@H]54)O[C@H]3[C@H]2OCCO)[C@@H](OC)[C@@H](O)[C@@H]1O[C@@H]1O[C@H](C)[C@H](OC)[C@H](O[C@@H]2O[C@H](C)[C@H]3O[C@]4(C[C@@H](O)[C@H](O[C@H]5C[C@@H](O[C@H]6C[C@](C)([N+](=O)[O-])[C@@H](OC)[C@H](C)O6)[C@H](OC(=O)c6c(C)c(Cl)c(O)c(Cl)c6OC)[C@@H](C)O5)[C@@H](C)O4)O[C@]3(C)[C@@H]2O)[C@@]1(C)O`: the figures for the minimum inhibitory concentration (MIC) with Staphylococcus sp. and in the experiment on Enterococcus sp. were 1 µg/mL (≈ 0.592 µM) and 0.5 µg/mL (≈ 0.296 µM), respectively.
Taken in the same sequence, the figures for `COC[C@H]1O[C@@H](O[C@@H]2OC[C@@H]3O[C@@]4(OC[C@@H](OC(=O)c5c(C)cc(O)cc5O)[C@@H]5OCO[C@H]54)O[C@H]3[C@H]2OCCNC(C)=O)[C@@H](OC)[C@@H](O)[C@@H]1O[C@@H]1O[C@H](C)[C@H](OC)[C@H](O[C@@H]2O[C@H](C)[C@H]3O[C@]4(C[C@@H](O)[C@H](O[C@H]5C[C@@H](O[C@H]6C[C@](C)([N+](=O)[O-])[C@@H](OC)[C@H](C)O6)[C@H](OC(=O)c6c(C)c(Cl)c(O)c(Cl)c6OC)[C@@H](C)O5)[C@@H](C)O4)O[C@]3(C)[C@@H]2O)[C@@]1(C)O` were 2 µg/mL (≈ 1.16 µM) and 4 µg/mL (≈ 2.31 µM).
The corresponding values for `COC[C@H]1O[C@@H](O[C@@H]2OC[C@@H]3O[C@@]4(OC[C@@H](OC(=O)c5c(C)cc(O)cc5O)[C@@H]5OCO[C@H]54)O[C@H]3[C@H]2O)[C@@H](OC)[C@@H](O)[C@@H]1O[C@@H]1O[C@H](C)[C@H](OC)[C@H](O[C@@H]2O[C@H](C)[C@H]3O[C@]4(C[C@@H](O)[C@H](O[C@H]5C[C@@H](O[C@H]6C[C@](C)(NC(=O)[C@@H](CCCCNC(=O)OCc7ccccc7)NC(=O)OCc7ccccc7)[C@@H](OC)[C@H](C)O6)[C@H](OC(=O)c6c(C)c(Cl)c(O)c(Cl)c6OC)[C@@H](C)O5)[C@@H](C)O4)O[C@]3(C)[C@@H]2O)[C@@]1(C)O` are 32 µg/mL (≈ 15.9 µM) and 8 µg/mL (≈ 3.98 µM).
Taken in the same sequence, the figures for `COC[C@H]1O[C@@H](O[C@@H]2OC[C@@H]3O[C@@]4(OC[C@@H](OC(=O)c5c(C)cc(O)cc5O)[C@@H]5OCO[C@H]54)O[C@H]3[C@H]2OC)[C@@H](OC)[C@@H](OC)C1O[C@@H]1O[C@H](C)[C@H](OC)C(O[C@@H]2O[C@H](C)[C@H]3O[C@]4(C[C@@H](OC)[C@H](O[C@H]5C[C@@H](O[C@H]6C[C@](C)([N+](=O)[O-])[C@@H](OC)[C@H](C)O6)[C@H](OC(=O)c6c(C)c(Cl)c(O)c(Cl)c6OC)[C@@H](C)O5)[C@@H](C)O4)O[C@]3(C)[C@@H]2OC)[C@@]1(C)OC` (stereo partly specified) were 16 µg/mL (≈ 9.33 µM) and 4 µg/mL (≈ 2.33 µM).
Consider `COC[C@H]1O[C@@H](O[C@@H]2OC[C@@H]3O[C@@]4(OC[C@@H](OC(=O)c5c(C)cc(O)cc5O)[C@@H]5OCO[C@H]54)O[C@H]3[C@H]2O)[C@@H](OC)[C@@H](O)[C@@H]1O[C@@H]1O[C@H](C)[C@H](OC)[C@H](O[C@@H]2O[C@H](C)[C@H]3O[C@]4(C[C@@H](O)[C@H](O[C@H]5C[C@@H](O[C@H]6C[C@](C)(NC(=O)[C@H](C)N)[C@@H](OC)[C@H](C)O6)[C@H](OC(=O)c6c(C)c(Cl)c(O)c(Cl)c6OC)[C@@H](C)O5)[C@@H](C)O4)O[C@]3(C)[C@@H]2O)[C@@]1(C)O`, for which the MIC in the experiment on Staphylococcus sp. and against Enterococcus sp. was 4 µg/mL (≈ 2.37 µM) in each case.
Take `COC[C@H]1O[C@@H](O[C@@H]2OC[C@@H]3O[C@@]4(OC[C@@H](OC(=O)c5c(C)cc(O)cc5O)[C@@H]5OCO[C@H]54)O[C@H]3[C@H]2O)[C@@H](OC)[C@@H](O)[C@@H]1O[C@@H]1O[C@H](C)[C@H](OC)[C@H](O[C@@H]2O[C@H](C)[C@H]3O[C@]4(C[C@@H](O)[C@H](O[C@H]5C[C@@H](O[C@H]6C[C@](C)([N+](=O)[O-])[C@@H](OC)[C@H](C)O6)[C@H](OC(=O)c6c(C)c(Cl)c(O)c(Cl)c6OC)[C@@H](C)O5)[C@@H](C)O4)O[C@]3(C)[C@@H]2O)[C@H]1O` [EVERNIMICIN]: the MIC against Staphylococcus sp. is 2 µg/mL (≈ 1.23 µM); against Enterococcus sp., 0.25 µg/mL (≈ 0.153 µM).
